In US20060051526A1, “Process for producing cellulose acylate film” (Fuji Photo Film Co., Ltd., priority 2002, published 2006):

Columns and labels:
Format in all cases: physicochemical
[1] = Solubility test of the additive alone in dichloromethane/methanol mixed solvent (visual, after 4 days); settings: for Solubility S0 (solids weight concentration at the dissolution limit): CH2Cl2/CH3OH 87/13
Method: The solubility of the functional additives was measured as follows.
1. Solutions were prepared by adjusting each concentration in a 50 cc screw cap bottle.
2. Allowed to stand at room temperature for 4 days. Here, the results of the solubility changed between 1 day and 4 days in some cases, and evaluation of the solubility was carried out after 4 days as a time when equilibrium was reached.
3. Samples were prepared in the same manner at other temperatures (20° C., 35° C.), and the solubility after allowing to stand for 4 days was visually inspected.
Predetermined amounts of Example Compounds I-(51) and I-(2) were weighed into a mixed solvent of dichloromethane and methanol, and the solubility was measured by changing the mixing ratio of the organic solvents.
The solubility (solids weight concentration at the dissolution limit was calculated as (C1+C2)/2 when the concentration limit at which it could be dissolved was C1 and the concentration limit at which it could not be dissolved was C2) of the retardation control agent in a mixed solvent having an initial methylene chloride/methanol composition ratio of 87/13 was defined as S0, and the solubility of the retardation control agent when the solvent composition changed, during drying, to 74/26 where the methanol wt % was the maximum was defined as S1. The temperature at which the solubility was measured is denoted by the figure in brackets.

[2] = Measurement of micro heat of solution (multi-purpose calorimeter MPC-110); settings: for Degree of stabilization: Table 15; for Heat of solution ΔH0: solvent alone, 26.0° C.
Method: (2 Measurement of Micro Heat of Solution)
The heat of solution (dissolution enthalpy ΔH) of functional additives was measured as follows, using a multi-purpose calorimeter (MPC-110) manufactured by Tokyo Rikou as a micro heat of solution measuring instrument.
1. Solvent liquids and concentrated solutions were prepared beforehand in 1 L bottles.
2. Preparation of ampoule tubes
(1) Additives (powdered solid) were ground by a mortar and the granules were made uniform.
(2) A required amount (252 mg) of the additive to be measured was weighed into an ampoule tube for measurement of the micro heat of solution.
(3) The neck of the ampoule tube was heated sufficiently by a gas burner so as to seal the ampoule tube.
3. 50 g of the prepared solvent liquid or the concentrated solution was weighed into a measuring vessel. This amount was selected as an amount sufficient to immerse the ampoule tube in the solvent liquid when set in the measuring instrument.
4. The ampoule tube was set in the measuring instrument, which was equipped with an ampoule sealing mechanism, the measuring vessel was hermetically sealed with the ampoule sealing mechanism after confirming that the ampoule tube was immersed in the solvent liquid, it was placed in a constant temperature bath (26.0° C.), and stirring was started.
5. After confirming that the measuring instrument placed in the constant temperature bath had reached equilibrium temperature (about 8 to 12 hours) the ampoule tube was broken so as to mix the additive with the solvent liquid or the concentrated solution.
6. The total amount of heat generated was recorded.
7. The Joule's heat generated was measured by applying a known voltage to the measurement system for an appropriate time, and the recorded chart area for each measurement cell was calibrated using a known amount of heat.
8. The heat of solution of the sample was calculated from the Joule's heat and the measured sample area.
Shown in Table 11 are the solvent composition (wt %) and the solids composition (parts by weight) of the mother liquor when measuring the heat of solution, the type of retardation control agent sealed in the ampoule tube (Example Compounds I-(51) or I-(2)), and the results of measurement of the heat of solution.
The identification symbols of elements constituting the system are as follows: a denotes triacetylcellulose/plasticizer, b denotes triacetylcellulose, and c denotes plasticizer. For example, 2-87a denotes that the retardation control agent is the Example Compound I-(2), the solvent composition (wt %) is dichloromethane/methanol=87/13, and the solids constituting the system are triacetylcellulose and the plasticizer.
The heat of solution ΔH0 denotes the heat of solution (heat absorption) generated when there is no solid in the system (before breaking the ampoule tube) and the retardation control agent is dissolved in a solvent alone. […] The solids concentration of the system when saturation starts is defined as the saturation heat of solution solids concentration (wt %).
In all cases, when the solids concentration of the system is increased, the heat of solution either remains unchanged from that at a solids concentration of 0 wt % (the saturation heat of solution solids concentration is 0) or decreases and becomes saturated. […] This degree of stabilization is expressed as ΔH0−ΔHs, which is the decrease in the heat of solution.

[3] = Solubility test of the additive alone in dichloromethane/methanol mixed solvent (visual, after 4 days)
[4] = 87/13, solids a: triacetylcellulose/plasticizer
[5] = 87/13, solids b: triacetylcellulose only
[6] = 87/13, solids c: plasticizer only
[7] = initial 87/13 vs 74/26, at any of 25° C., 20° C., 35° C.

With `Cc1cccc(Nc2nc(Nc3cccc(C)c3)nc(Nc3cccc(C)c3)n2)c1` [Example Compound I-(51)] the “Ratio S1/S0” value ([1]; 20° C., 87/13 vs 74/26) was 0.455, the “Solubility S0 (solids weight concentration at the dissolution limit)” value ([1]; 20° C.) was 27.5 wt % and the “Ratio S1/S0” value ([1]; 25° C., 87/13 vs 74/26) was 0.467. For the same molecule, the “Difference S0 − S1” value ([1]; 35° C., 87/13 vs 74/26) was 15 wt %, the “Ratio S1/S0” value ([1]; 35° C., 87/13 vs 74/26) was 0.455 and the “Solubility S1 (solids weight concentration at the dissolution limit)” value ([1]; 35° C., CH2Cl2/CH3OH 74/26) was 12.5 wt %. The “Solubility S0 (solids weight concentration at the dissolution limit)” value ([1]; 35° C.) was 27.5 wt %, the “Degree of stabilization (ΔH0 − ΔHs)” value ([2]; 50/50, solids a) was 0 kcal/mol and the “Saturation heat of solution solids concentration” value (from here on “Saturation heat”) ([2]; 50/50, solids a) was 0 wt %. For the same molecule, the “Heat of solution ΔHs” value ([2]; 50/50, solids a: triacetylcellulose/plasticizer) was 4.25 kcal/mol, the “Degree of stabilization (ΔH0 − ΔHs)” value ([2]; 74/26, solids a) was 0 kcal/mol and the “Saturation heat” value ([2]; 74/26, solids a) was 0 wt %. For the same molecule, the “Heat of solution ΔHs” value ([2]; 74/26, solids a: triacetylcellulose/plasticizer) was 4.56 kcal/mol, the “Degree of stabilization (ΔH0 − ΔHs)” value [2, 4] was 0.5 kcal/mol and the “Saturation heat” value [2, 4] was 5 wt %. The “Heat of solution ΔHs” value ([2]; 87/13, solids a: triacetylcellulose/plasticizer (TPP/BDP)) was 4.35 kcal/mol, the “Degree of stabilization (ΔH0 − ΔHs)” value [2, 5] was 0.6 kcal/mol and the “Heat of solution ΔHs” value [2, 5] was 4.25 kcal/mol. For the same molecule, the “Saturation heat” value [2, 5] was 5 wt %, the “Degree of stabilization (ΔH0 − ΔHs)” value [2, 6] was 0 kcal/mol and the “Heat of solution ΔHs” value [2, 6] was 4.85 kcal/mol. The “Saturation heat” value [2, 6] was 0 wt %, the “Degree of stabilization (ΔH0 − ΔHs)” value ([2]; 92/8, solids a) was 0.8 kcal/mol and the “Saturation heat” value ([2]; 92/8, solids a) was 7 wt %. The “Heat of solution ΔHs” value ([2]; 92/8, solids a: triacetylcellulose/plasticizer) was 4.23 kcal/mol, the “Degree of stabilization (ΔH0 − ΔHs)” value ([2]; 100/0, solids a) was 1.48 kcal/mol and the “Saturation heat” value ([2]; 100/0, solids a) was 10 wt %. For the same molecule, the “Heat of solution ΔHs” value ([2]; 100/0, solids a: triacetylcellulose/plasticizer) was 3.79 kcal/mol, the Degree of stabilization ([2]; dope Table 12, solvent composition 87/13) was 0.50 kcal/mol and the Degree of stabilization ([2]; dope Table 13, solvent composition 92/8) was 0.80 kcal/mol. For the same molecule, the Degree of stabilization ([2]; dope Table 14, solvent composition 74/26) was 0 kcal/mol, the “Stabilization by solids in the system (in words)” value ([2]; case c: only the plasticizer present in the system) was “not stabilized” and the “Heat of solution ΔH0” value ([2]; dichloromethane/methanol 50/50 wt %) was 4.25 kcal/mol. For the same molecule, the “Heat of solution ΔH0” value ([2]; dichloromethane/methanol 74/26 wt %) was 4.56 kcal/mol, the “Heat of solution ΔH0” value ([2]; dichloromethane/methanol 87/13 wt %) was 4.85 kcal/mol and the “Heat of solution ΔH0” value ([2]; dichloromethane/methanol 92/8 wt %) was 5.03 kcal/mol. The “Heat of solution ΔH0” value ([2]; dichloromethane/methanol 100/0 wt %) was 5.27 kcal/mol, the “Difference S0 − S1” value ([3]; 20° C., 87/13 vs 74/26) was 15 wt % and the “Difference S0 − S1” value ([3]; 20° C., 92/8 vs 91/9) was 0 wt %. The “Ratio S1/S0” value ([3]; 20° C., 92/8 vs 91/9) was 1.000, the “Solubility S1 (solids weight concentration at the dissolution limit)” value ([3]; 20° C., CH2Cl2/CH3OH 74/26) was 12.5 wt % and the “Solubility S1 (solids weight concentration at the dissolution limit)” value ([3]; 20° C., CH2Cl2/CH3OH 91/9) was 27.5 wt %. The “Solubility S0 (solids weight concentration at the dissolution limit)” value ([3]; 20° C., CH2Cl2/CH3OH 92/8) was 27.5 wt %, the “Difference S0 − S1” value ([3]; 25° C., 87/13 vs 74/26) was 20 wt % and the “Difference S0 − S1” value ([3]; 25° C., 92/8 vs 91/9) was 0 wt %. The “Ratio S1/S0” value ([3]; 25° C., 92/8 vs 91/9) was 1.000, the “Solubility S1 (solids weight concentration at the dissolution limit)” value ([3]; 25° C., CH2Cl2/CH3OH 74/26) was 17.5 wt % and the “Solubility S0 (solids weight concentration at the dissolution limit)” value ([3]; 25° C., CH2Cl2/CH3OH 87/13) was 37.5 wt %. For the same molecule, the “Solubility S1 (solids weight concentration at the dissolution limit)” value ([3]; 25° C., CH2Cl2/CH3OH 91/9) was 37.5 wt %, the “Solubility S0 (solids weight concentration at the dissolution limit)” value ([3]; 25° C., CH2Cl2/CH3OH 92/8) was 37.5 wt % and the “Difference S0 − S1” value ([3]; 35° C., 92/8 vs 91/9) was 0 wt %. The “Ratio S1/S0” value ([3]; 35° C., 92/8 vs 91/9) was 1.000, the “Solubility S1 (solids weight concentration at the dissolution limit)” value ([3]; 35° C., CH2Cl2/CH3OH 91/9) was 27.5 wt % and the “Solubility S0 (solids weight concentration at the dissolution limit)” value ([3]; 35° C., CH2Cl2/CH3OH 92/8) was 27.5 wt %. For the same molecule, the “Difference in solubility S0−S1” value [3, 7] was ≥ 15 wt % and the “Ratio S1/S0 of the solubility” value [3, 7] was “less than 0.5”.
